Reference: US20250340604A1, “BLOOD-BRAIN BARRIER TRANSLOCATING PEPTIDES AND RELATED MOLECULES AND METHODS OF USE THEREOF” (Enkefalos Biosciences, Inc., priority 2022, published 2025)
Like-named read-outs stand apart in the source and are kept apart here. Ends that are not written are not given here.

What was measured:
[1] = rat, even after repeat dose; cited from earlier work
[2] = mouse, even after repeat dose; cited from earlier work
[3] = biological target: T1, mouse transferrin receptor (mTfR) (Mus musculus, UniProt Q62351); test: Flow cytometry internalization assay, mTfR-expressing HEK293F cells; format: cell-based; details: 50 nM Alexafluor 488 labeled protein, 4 h at 37° C., HEK293F cells transfected with mTfR; FIG. 2
T1 construct: expressed in transfected cells; host or cells: HEK293F
T1 sequence (Q62351 whole entry): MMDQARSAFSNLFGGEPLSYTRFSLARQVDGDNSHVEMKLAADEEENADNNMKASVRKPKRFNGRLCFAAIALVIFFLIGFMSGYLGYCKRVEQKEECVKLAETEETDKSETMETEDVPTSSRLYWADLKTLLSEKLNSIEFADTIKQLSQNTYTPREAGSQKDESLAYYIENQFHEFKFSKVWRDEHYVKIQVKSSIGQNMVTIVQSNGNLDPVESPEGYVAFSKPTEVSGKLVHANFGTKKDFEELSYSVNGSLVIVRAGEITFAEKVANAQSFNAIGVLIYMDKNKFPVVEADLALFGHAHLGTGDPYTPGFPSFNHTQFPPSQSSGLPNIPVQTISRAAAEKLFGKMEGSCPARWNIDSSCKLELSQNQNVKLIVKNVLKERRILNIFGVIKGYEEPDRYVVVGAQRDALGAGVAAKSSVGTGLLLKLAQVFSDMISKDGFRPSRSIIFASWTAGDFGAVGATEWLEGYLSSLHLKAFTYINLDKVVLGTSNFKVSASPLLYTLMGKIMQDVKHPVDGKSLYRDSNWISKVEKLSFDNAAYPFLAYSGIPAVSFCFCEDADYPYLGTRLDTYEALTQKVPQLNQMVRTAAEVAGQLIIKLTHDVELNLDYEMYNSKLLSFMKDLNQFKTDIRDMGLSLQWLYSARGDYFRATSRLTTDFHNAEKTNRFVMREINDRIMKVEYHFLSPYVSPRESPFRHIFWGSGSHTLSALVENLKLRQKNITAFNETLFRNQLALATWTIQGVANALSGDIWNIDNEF
Experimental: (§1) Free dye was then removed by passage through one to two desalting columns. HEK293F cells were first serially passaged two to three times, then transfected with expression constructs encoding human or mouse transferrin receptor ([…], respectively), and grown for 2-3 days at 37° C., 8% CO2, 130 rpm shaking in preparation for the assay. […] Cells were then pelleted, supernatant discarded, and resuspended in 40 μL fresh media containing 250 nM anti-488 quenching antibody (or media lacking 488 quenching antibody as a control), incubated on ice for 5 min, pelleted, supernatant discarded, washed with 200 μL cold FACS buffer, pelleted, supernatant discarded, and resuspended in 200 μL cold FACS buffer. Each sample was then subjected to FACS analysis using the FITC fluorescence detection channel, using Gate 1 (forward scatter linear vs. side scatter linear) to select live cells with normal morphology, using Gate 2 (side scatter area vs. side scatter linear) to select single cells, and measuring logarithmic FITC signal for 20,000-50,000 cells per sample. Subsequent data analysis was carried out using the FlowJo software package.

[4] = biological target: T2, human transferrin receptor (hTfR) (Homo sapiens, UniProt P02786); test: Flow cytometry internalization assay, hTfR-expressing HEK293F cells; format: cell-based; details: 50 nM Alexafluor 488 labeled protein, 4 h at 37° C., HEK293F cells transfected with hTfR; FIG. 2
T2 construct: expressed in transfected cells; host or cells: HEK293F
T2 sequence (P02786 whole entry): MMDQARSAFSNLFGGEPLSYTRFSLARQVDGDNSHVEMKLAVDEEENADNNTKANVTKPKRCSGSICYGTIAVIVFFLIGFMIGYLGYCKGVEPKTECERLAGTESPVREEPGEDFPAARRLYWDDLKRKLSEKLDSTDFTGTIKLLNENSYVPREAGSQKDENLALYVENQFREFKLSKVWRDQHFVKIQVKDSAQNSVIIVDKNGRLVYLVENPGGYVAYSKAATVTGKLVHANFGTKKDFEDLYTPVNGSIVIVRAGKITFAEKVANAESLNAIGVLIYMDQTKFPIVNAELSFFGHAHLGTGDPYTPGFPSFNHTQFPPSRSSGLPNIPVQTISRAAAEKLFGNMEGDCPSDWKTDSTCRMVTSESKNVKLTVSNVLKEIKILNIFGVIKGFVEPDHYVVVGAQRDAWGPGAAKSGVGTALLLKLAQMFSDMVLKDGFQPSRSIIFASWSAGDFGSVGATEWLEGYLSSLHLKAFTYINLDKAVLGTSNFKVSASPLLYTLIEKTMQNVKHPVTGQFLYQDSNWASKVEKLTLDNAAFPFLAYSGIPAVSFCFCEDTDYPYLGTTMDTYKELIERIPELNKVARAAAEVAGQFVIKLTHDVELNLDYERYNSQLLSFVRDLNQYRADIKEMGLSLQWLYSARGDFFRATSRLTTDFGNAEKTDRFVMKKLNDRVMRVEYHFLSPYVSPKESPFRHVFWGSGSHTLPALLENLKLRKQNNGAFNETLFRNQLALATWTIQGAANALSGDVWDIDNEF
Experimental: as §1

[5] = monovalent trastuzumab knob-hole cyclotide fusions, 25 mg/kg, 24 hours, brain homogenate ELISA, versus trastuzumab alone; FIG. 8B
Experimental: Female C57BL/6 mice, age 10-12 weeks, were weighed and administered purified trastuzumab antibody or trastuzumab antibody-monovalent cyclotide fusions, made monovalent by knobs-holes fusion (targeting IGF1R, LRP1, or RAGE receptors) in triplicate at 25 mg/kg in phosphate buffered saline (PBS). After 24 hours, mice were perfused with Dulbecco's PBS containing anesthetic via aortic puncture and brains were removed. One brain hemisphere was transferred to 4% paraformaldehyde in PBS for 24 hours at 4° C., then transferred to PBS at 4° C., paraffin embedded, thin-sectioned using a microtome, and slices were mounted on slides for immunohistochemistry (IHC). The other brain hemisphere was flash frozen and stored at −80° C. prior to homogenization. […]
Antibodies present in brain were quantified by enzyme-linked immunosorbent assay (ELISA). […] Plates were washed 4 times with TBST and once with TBS, developed with 3,3′,5,5′-tetramethylbenzidine (TMB) for 2 minutes, quenched with 1 N sulfuric acid, and read at 450 nm in a SpectraMax plate reader. […] Amounts of antibodies (e.g., antibody fusion proteins or antibody alone) present in brain homogenates were determined by interpolation from each standard curve and were expressed as percents of injected dose per gram of brain (FIG. 8B).

## Ziconitide
[1]
  anti-drug antibodies (ADAs): no anti-drug antibodies (ADAs) were detectable
[2]
  anti-drug antibodies (ADAs): no anti-drug antibodies (ADAs) were detectable

## adalimumab
[3]
  internalization (mean FITC fluorescence intensity): not
[4]
  internalization (mean FITC fluorescence intensity): not

## cyclotide binding Hu LRP-1; loop 1 peptide WLTLGIANKGIDVYDVK (SEQ ID NO:39); cyclotide SEQ ID NO:85 (GGVCWLTLGIANKGIDVYDVKCRRDSDCPGACICRGNGYCGSGSD; not fully specified (bridges); cysteine pairing not given here) [CYC30]
[5]
  trastuzumab delivery to the brain (percents of injected dose per gram of brain): did not exhibit enhancement

## cyclotide binding Hu LRP-1; loop 1 peptide WYETKTKLYVGVVK (SEQ ID NO:43); cyclotide SEQ ID NO:89 (GGVCWYETKTKLYVGVVKCRRDSDCPGACICRGNGYCGSGSD; not fully specified (bridges); cysteine pairing not given here) [CYC34]
[5]
  trastuzumab delivery to the brain (percents of injected dose per gram of brain): greatest enhancement
